In BindingDB's records for doi:10.1016/S0960-894X(01)80987-2 (1993):

Assay: In vitro test for inhibition of [125I]CCK binding to Cholecystokinin type B receptor from guinea pig cortical membranes was determined

Point of comparison: `Cc1cccc(NC(=O)NC2N=C(C3CCC3)c3ccccc3N(C)C2=O)c1` (stereo not drawn) [1-(5-Cyclobutyl-1-methyl-2-oxo-2,3-dihydro-1H-benzo[e][1,4]diazepin-3-yl)-3-m-tolyl-urea], IC50 30 nM. Against it:
- Cc1cccc(NC(=O)NC2N=C(C3CCCC3)c3ccccc3N(C)C2=O)c1 (stereo not drawn) [1-(5-Cyclopentyl-1-methyl-2-oxo-2,3-dihydro-1H-benzo[e][1,4]diazepin-3-yl)-3-m-tolyl-urea] — 1.9-fold lower, 16 nM
- Cc1cccc(NC(=O)N[C@H]2N=C(C3CCCCC3)c3ccccc3N(C)C2=O)c1 [1-((S)-5-Cyclohexyl-1-methyl-2-oxo-2,3-dihydro-1H-benzo[e][1,4]diazepin-3-yl)-3-m-tolyl-urea] — 5.6-fold higher, 169 nM
